Assay results published in ChEMBL document CHEMBL1133457 (J Med Chem, 2000).

Legend:
[1] = target: T1, Prostaglandin G/H synthase 2 (Homo sapiens, UniProt P35354)
T1 sequence (P35354 whole entry): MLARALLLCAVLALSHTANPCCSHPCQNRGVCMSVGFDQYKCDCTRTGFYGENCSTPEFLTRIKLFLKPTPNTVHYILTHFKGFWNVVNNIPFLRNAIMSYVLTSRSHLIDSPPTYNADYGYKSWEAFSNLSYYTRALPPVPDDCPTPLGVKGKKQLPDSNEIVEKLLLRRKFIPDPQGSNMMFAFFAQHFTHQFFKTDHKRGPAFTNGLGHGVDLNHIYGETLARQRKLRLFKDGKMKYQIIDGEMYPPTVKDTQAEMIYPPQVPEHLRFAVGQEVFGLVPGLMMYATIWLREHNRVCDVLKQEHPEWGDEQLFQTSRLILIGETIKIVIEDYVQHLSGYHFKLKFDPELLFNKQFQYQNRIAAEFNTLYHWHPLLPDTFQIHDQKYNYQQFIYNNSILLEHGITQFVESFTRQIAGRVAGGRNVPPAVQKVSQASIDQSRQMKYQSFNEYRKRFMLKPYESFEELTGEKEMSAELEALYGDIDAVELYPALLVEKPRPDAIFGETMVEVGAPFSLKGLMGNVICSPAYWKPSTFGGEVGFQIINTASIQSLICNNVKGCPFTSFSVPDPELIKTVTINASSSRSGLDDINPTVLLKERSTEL

[2] = target: T2, Prostaglandin G/H synthase 1 (Ovis aries, UniProt P05979)
T2 sequence (P05979 whole entry): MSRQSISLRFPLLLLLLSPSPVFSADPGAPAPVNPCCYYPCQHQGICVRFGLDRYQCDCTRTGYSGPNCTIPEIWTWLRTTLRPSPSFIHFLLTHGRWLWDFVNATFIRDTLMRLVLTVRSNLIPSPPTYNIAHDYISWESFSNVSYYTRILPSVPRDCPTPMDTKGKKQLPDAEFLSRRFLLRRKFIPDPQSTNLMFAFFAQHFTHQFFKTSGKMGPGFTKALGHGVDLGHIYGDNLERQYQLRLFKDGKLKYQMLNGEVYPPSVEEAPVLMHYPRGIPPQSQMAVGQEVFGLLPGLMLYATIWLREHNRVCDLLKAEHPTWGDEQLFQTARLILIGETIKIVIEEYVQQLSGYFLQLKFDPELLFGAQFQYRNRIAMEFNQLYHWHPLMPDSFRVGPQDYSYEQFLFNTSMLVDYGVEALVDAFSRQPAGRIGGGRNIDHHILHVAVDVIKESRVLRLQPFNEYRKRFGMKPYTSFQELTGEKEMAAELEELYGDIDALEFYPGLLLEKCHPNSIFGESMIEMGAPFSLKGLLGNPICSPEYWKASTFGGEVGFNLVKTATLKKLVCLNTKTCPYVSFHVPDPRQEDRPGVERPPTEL

Row | SMILES | IC50 [1] [µM] | IC50 [2] [µM]
1 | COc1ccc2c(c1)c(CC(=O)NOCc1ccc([N+](=O)[O-])cc1)c(C)n2C(=O)c1ccc(Cl)cc1 | 0.06 | 4
2 | COc1ccc2c(c1)c(CC(=O)OCCNC(=O)OC(C)(C)C)c(C)n2C(=O)c1ccc(Cl)cc1 | 0.045 | > 66
3 | COc1ccc2c(c1)c(CC(=O)NCCOC(=O)/C=C/c1ccc(N(C)C)cc1)c(C)n2C(=O)c1ccc(Cl)cc1 |  | > 66
4 | COc1ccc2c(c1)c(CC(=O)OCCc1ccccc1)cn2C(=O)c1ccc(Cl)cc1 | > 66 | > 66
5 | COc1ccc2c(c1)c(CC(=O)OCCc1ccccc1)c(C)n2C(=O)c1ccc(Cl)cc1 | 0.04 | 
6 | COc1ccc2c(c1)c(CC(=O)NCCc1ccccc1)cn2C(=O)c1ccc(Cl)cc1 | > 66 | > 66
7 | COc1ccc2c(c1)c(CC(=O)Nc1cc(C)c(C(=O)Nc3ccccc3)cc1OC)c(C)n2C(=O)c1ccc(Cl)cc1 | 0.6 | 17
8 | COc1ccc2c(c1)c(CC(=O)Nc1cncc(Cl)c1)c(C)n2C(=O)c1ccc(Cl)cc1 | 0.047 | > 66
9 | COc1ccc2c(c1)c(CC(=O)N1CCOCC1)c(C)n2C(=O)c1ccc(Cl)cc1 [INDOMETHACIN MORPHOLINYLAMIDE] | > 33 | > 66

Now from value to compound:

Row | IC50 [1] [µM] | IC50 [2] [µM] | SMILES
10 | 0.4 |  | COC(=O)[C@@H](C)NC(=O)Cc1c(C)n(C(=O)c2ccc(Cl)cc2)c2ccc(OC)cc12
11 | 0.05 | 45 | COc1ccc2c(c1)c(CC(=O)Nc1cccnc1Cl)c(C)n2C(=O)c1ccc(Cl)cc1
12 | 25 | > 66 | CCN(CC)C(=O)Cc1c(C)n(C(=O)c2ccc(Cl)cc2)c2ccc(OC)cc12
13 | 0.14 | > 66 | COc1ccc2c(c1)c(CC(=O)Nc1ccc(C(N)=O)cc1)c(C)n2C(=O)c1ccc(Cl)cc1
14 | > 1 | > 66 | COc1ccc2c(c1)c(CC(=O)Nc1cc(OC)c(OC)c(OC)c1)c(C)n2C(=O)c1ccc(Cl)cc1
15 | 0.05 | 0.06 | COc1ccc2c(c1)c(CC(=O)NOCc1ccccc1)c(C)n2C(=O)c1ccc(Cl)cc1
16 | 2.5 | > 66 | COc1ccc2c(c1)c(CC(=O)NNCc1ccccc1)c(C)n2C(=O)c1ccc(Cl)cc1
17 | 5 | > 66 | COc1ccc2c(c1)c(CC(=O)Oc1cccc3ccccc13)c(C)n2C(=O)c1ccc(Cl)cc1
18 |  | > 66 | COc1ccc2c(c1)c(CC(=O)Nc1ncc(C)s1)c(C)n2C(=O)c1ccc(Cl)cc1
19 |  | > 66 | COc1ccc2c(c1)c(CC(=O)N(C)C)c(C)n2C(=O)c1ccc(Cl)cc1
